In patent publication US9334269B2, “Carboxamides as inhibitors of voltage-gated sodium channels” (AMGEN INC., priority 2010, dated 2016):

Target: T1, human Nav1.7 (hNav1.7) (Homo sapiens, UniProt Q15858)
T1 construct: expressed in transfected cells
Experiment: hNav1.7 whole-cell patch-clamp electrophysiology (automated PatchXpress 7000A or manual) in stably expressing 293 cells
Type: cell-based
Protocol: Compounds were tested on human Nav1.7 (hNav1.7) expressed stably in 293 cells, which have no endogenous sodium channels. Two forms of whole-cell patch-clamp assays were used. In both, peak current through Nav1.7 was evoked by a depolarizing voltage pulse, and currents were monitored as a function of time in response to exposure to several different concentrations of drug. Automated electrophysiology uses the PatchXpress 7000A system. Up to sixteen cells at a time were voltage-clamped in parallel, and the steady-state voltage dependence of inactivation was determined experimentally for each cell. For each cell, fractional inactivation was set at 20%, and peak current through Nav1.7 as a function of time was measured in response to increasing concentrations of test compound. Manual electrophysiology refers to conventional whole-cell patch-clamping (Hamill et al., 1981). After formation of the whole-cell clamp, cells were lifted off the bottom of the dish with the patch pipette and positioned directly in front of an array of glass microperfusion tubes each with internal diameter about 250 microns, with individual compound concentrations flowing from each tube. Current as a function of time in response to increasing drug concentrations was measured with Nav1.7 fully in the resting state (holding voltage set to −140 mV) and on the same cells with the holding voltage set to produce about 20% inactivation. Compounds were not applied for a prespecified time, but for as long as required to achieve a stable level of block. For both forms of electrophysiology, offline analysis was used to correct for rundown of channel current and to determine percent inhibition as a function of drug concentration. IC50 were determined by fitting to the Hill equation.

[1] = human Nav1.7 stably expressed in 293 cells, whole-cell patch clamp, average IC50 from Hill fit

T1 sequence (Q15858 whole entry): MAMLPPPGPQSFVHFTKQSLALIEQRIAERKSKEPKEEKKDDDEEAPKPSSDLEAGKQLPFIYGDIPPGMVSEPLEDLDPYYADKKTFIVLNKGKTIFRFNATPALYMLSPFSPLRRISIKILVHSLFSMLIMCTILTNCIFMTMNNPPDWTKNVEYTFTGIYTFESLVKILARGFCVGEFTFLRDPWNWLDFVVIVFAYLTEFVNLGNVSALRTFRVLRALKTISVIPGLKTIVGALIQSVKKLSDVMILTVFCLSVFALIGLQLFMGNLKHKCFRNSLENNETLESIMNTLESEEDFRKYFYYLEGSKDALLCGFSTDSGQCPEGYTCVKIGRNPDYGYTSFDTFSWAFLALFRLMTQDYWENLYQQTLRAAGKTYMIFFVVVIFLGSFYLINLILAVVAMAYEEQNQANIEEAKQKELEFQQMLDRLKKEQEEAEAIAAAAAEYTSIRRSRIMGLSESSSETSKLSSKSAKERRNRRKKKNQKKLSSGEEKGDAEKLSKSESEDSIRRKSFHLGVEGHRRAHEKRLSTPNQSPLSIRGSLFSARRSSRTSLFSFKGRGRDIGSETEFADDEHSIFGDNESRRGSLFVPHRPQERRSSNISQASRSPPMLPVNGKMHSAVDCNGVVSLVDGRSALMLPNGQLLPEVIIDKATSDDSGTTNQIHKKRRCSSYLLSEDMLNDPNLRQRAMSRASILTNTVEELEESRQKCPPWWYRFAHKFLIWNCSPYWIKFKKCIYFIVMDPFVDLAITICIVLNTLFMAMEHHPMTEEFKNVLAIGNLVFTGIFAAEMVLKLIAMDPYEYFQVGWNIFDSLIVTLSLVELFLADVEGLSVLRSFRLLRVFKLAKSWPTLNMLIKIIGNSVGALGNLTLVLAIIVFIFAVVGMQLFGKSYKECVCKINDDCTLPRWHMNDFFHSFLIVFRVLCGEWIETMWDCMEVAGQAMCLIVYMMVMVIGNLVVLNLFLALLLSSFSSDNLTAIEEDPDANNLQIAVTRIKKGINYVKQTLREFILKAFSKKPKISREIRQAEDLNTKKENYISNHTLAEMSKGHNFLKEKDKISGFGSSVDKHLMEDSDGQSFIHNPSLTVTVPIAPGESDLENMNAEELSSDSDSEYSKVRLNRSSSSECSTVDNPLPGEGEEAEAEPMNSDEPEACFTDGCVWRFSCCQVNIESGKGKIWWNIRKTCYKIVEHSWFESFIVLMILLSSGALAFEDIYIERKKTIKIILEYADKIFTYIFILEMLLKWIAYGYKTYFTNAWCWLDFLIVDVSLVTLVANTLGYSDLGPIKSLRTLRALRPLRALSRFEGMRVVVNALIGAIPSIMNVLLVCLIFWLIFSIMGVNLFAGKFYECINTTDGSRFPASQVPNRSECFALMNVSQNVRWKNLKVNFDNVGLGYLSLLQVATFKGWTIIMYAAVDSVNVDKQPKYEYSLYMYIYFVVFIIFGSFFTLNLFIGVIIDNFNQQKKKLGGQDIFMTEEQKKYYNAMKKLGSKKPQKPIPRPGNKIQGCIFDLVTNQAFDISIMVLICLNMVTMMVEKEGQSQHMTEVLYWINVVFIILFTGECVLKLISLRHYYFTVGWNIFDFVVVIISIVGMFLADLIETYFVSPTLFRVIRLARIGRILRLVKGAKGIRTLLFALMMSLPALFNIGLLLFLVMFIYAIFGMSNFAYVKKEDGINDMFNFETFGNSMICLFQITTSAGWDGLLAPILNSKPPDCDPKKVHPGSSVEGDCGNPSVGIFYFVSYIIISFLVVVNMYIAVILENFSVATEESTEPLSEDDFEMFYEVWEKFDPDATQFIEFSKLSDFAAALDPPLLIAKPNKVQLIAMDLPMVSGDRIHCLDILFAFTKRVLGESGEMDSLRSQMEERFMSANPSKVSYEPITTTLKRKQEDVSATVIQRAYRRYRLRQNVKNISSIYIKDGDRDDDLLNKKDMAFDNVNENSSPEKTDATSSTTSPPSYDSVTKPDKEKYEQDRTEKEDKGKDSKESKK

| IC50 (average IC50, human Nav1.7) [µM] | SMILES | also measured |
| --- | --- | --- |
| 4.45 | CNC(=O)c1cccc(Nc2ncnc(N3CCN(c4ccccc4OC(F)(F)F)CC3)n2)c1 [Example 172] |  |
|  | CNC(=O)c1cccc(Nc2ncnc(N3CCc4cccc(OC)c4C3)n2)c1 [Example 281] | IC50 (average IC50): 27.9 µM |
| 8.24 | CNC(=O)c1cccc(Nc2ncnc(N3CC(Oc4ccc(C#N)cc4)C3)n2)c1 [Example 210] |  |
| 2.37 | CNC(=O)c1ccc(Cl)c(Nc2ncnc(N3CC(Oc4ccc(F)cc4)C3)n2)c1 [Example 129] |  |
| 0.87 | CNC(=O)c1cccc(Nc2ncnc(N3CCN(c4cccc(Cl)c4)CC3)n2)c1 [Example 69] |  |
| 2.8 | CNC(=O)c1cccc(Nc2ncnc(N3CCC(COc4ccccc4)CC3)n2)c1 [Example 143] |  |
| 0.42 | CNC(=O)c1cccc(Nc2ncnc(N3CC(Oc4ccccc4Cl)C3)n2)c1 [Example 29] |  |
| 3.5 | CNC(=O)c1cccc(Nc2ncnc(N3CCN(c4ccc(OC)cc4)CC3)n2)c1 [Example 159] |  |
| 2.79 | CNC(=O)c1cccc(Nc2ncnc(N3CCC(c4nc(-c5ccccc5)no4)CC3)n2)c1 [Example 140] |  |
| 7.12 | CNC(=O)c1cccc(Nc2ncnc(N3CCN(c4ccc(OC(F)(F)F)cc4)CC3)n2)c1C [Example 202] |  |
| 7.42 | CNC(=O)c1cccc(Nc2ncnc(N3CCCN(Cc4ccccc4)CC3)n2)c1 [Example 203] |  |
| 8.6 | CNC(=O)c1cccc(Nc2ncnc(N3CCc4cc(C(F)(F)F)ccc4C3)n2)c1 [Example 216] |  |
| 2.91 | CNC(=O)c1cc(F)cc(Nc2ncnc(N3CCC(Oc4ccc(OC(F)(F)F)cc4)CC3)n2)c1 [Example 146] |  |
| 8.66 | CNC(=O)c1cccc(Nc2ncnc(N3CC(Oc4ccccc4-c4ccccc4)C3)n2)c1 [Example 217] |  |
| 0.27 | CNC(=O)c1cccc(Nc2ncnc(NCCCOc3ccc(OC(F)(F)F)cc3)n2)c1 [Example 13] |  |
| 8.82 | CNC(=O)c1cc(Nc2ncnc(N3CC(Oc4ccc(Cl)cc4)C3)n2)ccc1O [Example 219] |  |
|  | CNC(=O)c1cccc(Nc2ncnc(N3CC(C)(Oc4ccccc4)C3)n2)c1 [Example 263] | IC50 (average IC50): 18.1 µM |
| 5.28 | CNC(=O)c1cccc(Nc2ncnc(N3CCc4cc(C)ccc4C3)n2)c1 [Example 185] |  |
| 10 | CNC(=O)c1cccc(Nc2ncnc(N3CC(COc4ccc5ccccc5c4)C3)n2)c1 [Example 234] |  |
| 3.5 | CNC(=O)c1cccc(Nc2ncnc(N3CC(COc4ccc(Cl)c(Cl)c4)C3)n2)c1 [Example 158] |  |
| 9.19 | CNC(=O)c1cccc(Nc2ncnc(N3CC(COc4ccc(OC)cc4)C3)n2)c1 [Example 223] |  |
| 0.89 | CNC(=O)c1cc(Nc2ncnc(N3CC(COc4ccc(Cl)cc4)C3)n2)ccc1F [Example 70] |  |

| IC50 (average IC50, human Nav1.7) [µM] | SMILES | also measured |
| --- | --- | --- |
| 13.8 | CNC(=O)c1cccc(Nc2ncnc(N3CC(COc4ccccc4F)C3)n2)c1 [Example 251] |  |
|  | CNC(=O)c1cccc(Nc2nccc(N3CC(Oc4ccc(OC)cc4)C3)n2)c1 [Example D, 3-((4-(3-(4-methoxyphenoxy)-1-azetidinyl)-2-pyrimidinyl)amino)-N-methylbenzamide] | IC50 [1]: 0.43 µM |
|  | CNC(=O)c1cccc(Nc2ncnc(N3CCc4ccc(C(F)(F)F)cc4C3)n2)c1 [Example 298] | IC50 (average IC50): > 30 µM |
| 0.85 | CNC(=O)c1cccc(Nc2ncnc(N3CC(COc4ccc(OC(F)(F)F)cc4)C3)n2)c1 [Example 67] |  |
| 11.2 | CNC(=O)c1cccc(Nc2ncnc(N3CC(COc4cccc(F)c4)C3)n2)c1 [Example 242] |  |
| 4.33 | CNC(=O)c1cccc(Nc2ncnc(N3CC(COc4cccc(OC(F)(F)F)c4)C3)n2)c1 [Example 171] |  |
| 3.34 | CNC(=O)c1cccc(Nc2ncnc(NCCCOc3ccc(OC(F)(F)F)cc3)n2)c1C [Example 156] |  |
| 2.74 | CNC(=O)c1cccc(Nc2ncnc(N3CCc4c(cccc4OC)C3)n2)c1 [Example 138] |  |
| 16.9 | CNC(=O)c1cccc(Nc2ncnc(N3CCC(Nc4ccccc4)CC3)n2)c1 [Example 257] |  |
|  | CNC(=O)c1cccc(Nc2ncnc(N3CC(COc4ccccc4C(F)(F)F)C3)n2)c1 [Example 276] | IC50 (average IC50): 23.6 µM |
| 6.83 | CNC(=O)c1cccc(Nc2ncnc(N3CCN(c4ccc(F)cc4)CC3)n2)c1 [Example 198] |  |
| 0.6 | CNC(=O)c1cccc(Nc2ncnc(N3CCN(c4cccc(C(F)(F)F)c4)CC3)n2)c1 [Example 43] |  |
| 2.13 | CNC(=O)c1cccc(Nc2ncnc(N3CCc4c(cccc4OC(F)(F)F)C3)n2)c1 [Example 123] |  |
|  | CNC(=O)c1cccc(Nc2nccc(N3CC(Oc4ccc(Cl)c(F)c4)C3)n2)c1 [Example K, 3-((4-(3-(4-chloro-3-fluorophenoxy)-1-azetidinyl)-2-pyrimidinyl)amino)-N-methylbenzamide] | IC50 [1]: 0.74 µM |
|  | CNC(=O)c1cccc(Oc2ncnc(N3CC(Oc4ccc(Cl)cc4F)C3)n2)c1 [Example AE, 3-((4-(3-(4-chloro-2-fluorophenoxy)-1-azetidinyl)-1,3,5-triazin-2-yl)oxy)-N-methylbenzamide] | IC50 [1]: > 30 µM |
| 10.8 | CNC(=O)c1cccc(Nc2ncnc(N3CCC(Oc4ccccc4F)CC3)n2)c1 [Example 238] |  |
|  | CNC(=O)c1cccc(Nc2nccc(N3CC(Oc4ccc(F)c(Cl)c4)C3)n2)c1 [Example F, 3-((4-(3-(3-chloro-4-fluorophenoxy)-1-azetidinyl)-2-pyrimidinyl)amino)-N-methylbenzamide] | IC50 [1]: 2.83 µM |
|  | CNC(=O)c1cccc(Nc2nccc(N3CC(Oc4ccc(F)c(C)c4)C3)n2)c1 [Example G, 3-((4-(3-(4-fluoro-3-methylphenoxy)-1-azetidinyl)-2-pyrimidinyl)amino)-N-methylbenzamide] | IC50 [1]: 1.41 µM |
| 1.57 | CNC(=O)c1cccc(Nc2ncnc(N3CC(Oc4cccc(Cl)c4Cl)C3)n2)c1 [Example 104] |  |
| 3.71 | CNC(=O)c1cccc(Nc2ncnc(N3CC(COc4ccc(F)cc4)C3)n2)c1 [Example 163] |  |
|  | CNC(=O)c1cc(F)cc(Nc2ncnc(N3CC(Oc4ccc(Cl)cc4F)C3)n2)c1 [Example S, 3-(4-(3-(4-chloro-2-fluorophenoxy)azetidin-1-yl)-1,3,5-triazin-2-ylamino)-5-fluoro-N-methylbenzamide] | IC50 [1]: > 30 µM |
| 12.8 | CNC(=O)c1cccc(Nc2ncnc(N3CC(COc4ccccc4Cl)C3)n2)c1 [Example 247] |  |

| IC50 (average IC50, human Nav1.7) [µM] | SMILES | also measured |
| --- | --- | --- |
| 0.28 | CNC(=O)c1cccc(Nc2ncnc(N3CC(Oc4ccc(F)c(Cl)c4)C3)n2)c1 [Example 15] |  |
| 2.02 | CNC(=O)c1cccc(Nc2ncnc(N3CCC(Oc4ccc(C(F)(F)F)cc4)CC3)n2)c1 [Example 118] |  |
| 1.44 | CNC(=O)c1cccc(Nc2ncnc(N3CCC(Oc4ccc(OCC(F)(F)F)cc4)CC3)n2)c1 [Example 101] |  |
| 2.87 | CNC(=O)c1cccc(Nc2ncnc(N3CCc4c(cnn4-c4ccc(Cl)cc4)C3)n2)c1 [Example 144] |  |
| 2.07 | CNC(=O)c1cccc(Nc2ncnc(N3CCC(Oc4cccc(OC(F)(F)F)c4)CC3)n2)c1 [Example 119] |  |
| 0.75 | CNC(=O)c1cccc(Nc2cccc(N3CC(Oc4ccc(F)cc4)C3)n2)c1 [Example 56] |  |
| 1.17 | CNC(=O)c1cccc(Nc2ncnc(N3CCC(Oc4ccccc4Cl)CC3)n2)c1 [Example 85] |  |
|  | CNC(=O)c1cccc(Nc2ncnc(N3CCc4cc(OCC(F)(F)F)ccc4C3)n2)c1C [Example 275] | IC50 (average IC50): 22.6 µM |
| 7.42 | O=C(NC1CC1)c1cccc(Nc2ncnc(N3CC(Oc4ccc(F)cc4)C3)n2)c1 [Example 205] |  |
| 16.9 | CNC(=O)c1cccc(Nc2ncnc(N3CC(COc4ccc(C#N)cc4)C3)n2)c1 [Example 258] |  |
|  | CNC(=O)c1cccc(Nc2cccc(N3CC(Oc4ccc(Cl)cc4F)C3)c2)c1 [Example AG, 3-((3-(3-(4-chloro-2-fluorophenoxy)-1-azetidinyl)phenyl)amino)-N-methylbenzamide] | IC50 [1]: > 30 µM |
| 0.29 | CNC(=O)c1cccc(Nc2ncnc(N3CC(Oc4ccc(F)cc4C)C3)n2)c1 [Example 16] |  |
| 0.5 | CNC(=O)c1cccc(Nc2ncnc(N3CC(COc4ccc(Cl)cc4)C3)n2)c1 [Example 40] |  |
|  | CNC(=O)c1cccc(Nc2ncnc(N3CCN(c4ccc(F)c(Cl)c4)CC3)n2)c1 [Example 271] | IC50 (average IC50): 21.4 µM |
| 2.31 | CCn1c2c(c3ccccc31)CN(c1ncnc(Nc3cccc(C(=O)NC)c3)n1)CC2 [Example 127] |  |
| 1.58 | CNC(=O)c1cccc(Nc2ncnc(N3CC(COc4ccc(Cl)cc4F)C3)n2)c1 [Example 105] |  |
| 1.3 | CNC(=O)c1cccc(Nc2ncnc(N3CCC(COc4ccc(F)c(F)c4)CC3)n2)c1 [Example 93] |  |
|  | CNC(=O)c1cccc(Nc2ncnc(NCc3noc(C(=O)NC4CC4)n3)n2)c1 [Example 289] | IC50 (average IC50): > 30 µM |
|  | CNC(=O)c1cccc(Nc2ncnc(N3CCC(OCc4ccc(OC(F)(F)F)cc4)CC3)n2)c1C [Example AD, N,2-dimethyl-3-((4-(4-((4-(trifluoromethoxy)benzyl)oxy)-1-piperidinyl)-1,3,5-triazin-2-yl)amino)benzamide] | IC50 [1]: 28.6 µM |
| 1.56 | CNC(=O)c1cc(F)cc(Nc2ncnc(N3CCC(c4nc(-c5ccccc5)cs4)CC3)n2)c1 [Example 103] |  |
| 0.3 | CCc1cccc(OC2CN(c3ncnc(Nc4cccc(C(=O)NC)c4)n3)C2)c1 [Example 17] |  |
